Experimental data as given in paper PMC10924921, “Mi-2β promotes immune evasion in melanoma by activating EZH2 methylation” (Nature Communications, 2024).

Legend:
Test in all cases: biochemical
Parameters in all cases: KINOMEscan active-site competition binding panel (468 kinase assays), per cent of control at 1000 nM
Details in all cases: KINOMEscan per cent of control (binding competition); read-out: Percent Control
[1] = molecular target: T1, ABL1(F317L)-phosphorylated (Homo sapiens, UniProt P00519, F317L)
T1 construct: phosphorylated
Source text: (§1) Figure S7 / Percent Control

ABL1-phosphorylated = molecular target: T2, ABL1-phosphorylated (Homo sapiens, UniProt P00519)
T2 construct: phosphorylated
Source text: as §1

CAMK2D = CAMK2D (Homo sapiens, UniProt Q13557)
Source text: as §1

CLK2 = CLK2 (Homo sapiens, UniProt P49760)
Source text: as §1

CSK = CSK (Homo sapiens, UniProt P41240)
Source text: as §1

CSNK2A2 = CSNK2A2 (Homo sapiens, UniProt P19784)
Source text: as §1

DYRK2 = DYRK2 (Homo sapiens, UniProt Q92630)
Source text: as §1

FES = FES (Homo sapiens, UniProt P07332)
Source text: as §1

FYN = FYN (Homo sapiens, UniProt P06241)
Source text: as §1

[2] = molecular target: T3, JAK1(JH1domain-catalytic) (Homo sapiens, UniProt P23458)
T3 construct: JH1domain-catalytic
Source text: as §1

KIT(D816V) = KIT(D816V) (Homo sapiens, UniProt P10721, D816V)
Source text: as §1

MELK = MELK (Homo sapiens, UniProt Q14680)
Source text: as §1

MLK3 = molecular target: T4, MLK3 (Homo sapiens, UniProt Q16584)
T4 construct: gene MAP3K11
Source text: as §1

NIM1 = molecular target: T5, NIM1 (Homo sapiens, UniProt Q8IY84)
T5 construct: gene NIM1K
Source text: as §1

PAK3 = PAK3 (Homo sapiens, UniProt O75914)
Source text: as §1

PIK3C2G = PIK3C2G (Homo sapiens, UniProt O75747)
Source text: as §1

PIK4CB = molecular target: T6, PIK4CB (Homo sapiens, UniProt Q9UBF8)
T6 construct: gene PI4KB
Source text: as §1

PRKCD = PRKCD (Homo sapiens, UniProt Q05655)
Source text: as §1

PRKD2 = PRKD2 (Homo sapiens, UniProt Q9BZL6)
Source text: as §1

PRKD3 = PRKD3 (Homo sapiens, UniProt O94806)
Source text: as §1

QSK = molecular target: T7, QSK (Homo sapiens, UniProt Q9Y2K2)
T7 construct: gene SIK3
Source text: as §1

STK35 = STK35 (Homo sapiens, UniProt Q8TDR2)
Source text: as §1

TAOK1 = TAOK1 (Homo sapiens, UniProt Q7L7X3)
Source text: as §1

TRKB = molecular target: T8, TRKB (Homo sapiens, UniProt Q16620)
T8 construct: gene NTRK2
Source text: as §1

YSK4 = molecular target: T9, YSK4 (Homo sapiens, UniProt Q56UN5)
T9 construct: gene MAP3K19
Source text: as §1

CSNK2A2, sequence (P19784 whole entry): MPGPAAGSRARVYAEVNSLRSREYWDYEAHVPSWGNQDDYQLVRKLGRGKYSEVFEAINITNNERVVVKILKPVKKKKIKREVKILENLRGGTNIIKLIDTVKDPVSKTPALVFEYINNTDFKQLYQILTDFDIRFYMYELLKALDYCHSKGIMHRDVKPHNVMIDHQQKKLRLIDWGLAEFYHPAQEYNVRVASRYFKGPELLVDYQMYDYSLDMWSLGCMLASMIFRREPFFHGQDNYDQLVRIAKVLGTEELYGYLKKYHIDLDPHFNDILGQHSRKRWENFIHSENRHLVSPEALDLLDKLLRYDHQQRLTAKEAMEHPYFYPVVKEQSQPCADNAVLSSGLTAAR
PRKD2, sequence (Q9BZL6 whole entry): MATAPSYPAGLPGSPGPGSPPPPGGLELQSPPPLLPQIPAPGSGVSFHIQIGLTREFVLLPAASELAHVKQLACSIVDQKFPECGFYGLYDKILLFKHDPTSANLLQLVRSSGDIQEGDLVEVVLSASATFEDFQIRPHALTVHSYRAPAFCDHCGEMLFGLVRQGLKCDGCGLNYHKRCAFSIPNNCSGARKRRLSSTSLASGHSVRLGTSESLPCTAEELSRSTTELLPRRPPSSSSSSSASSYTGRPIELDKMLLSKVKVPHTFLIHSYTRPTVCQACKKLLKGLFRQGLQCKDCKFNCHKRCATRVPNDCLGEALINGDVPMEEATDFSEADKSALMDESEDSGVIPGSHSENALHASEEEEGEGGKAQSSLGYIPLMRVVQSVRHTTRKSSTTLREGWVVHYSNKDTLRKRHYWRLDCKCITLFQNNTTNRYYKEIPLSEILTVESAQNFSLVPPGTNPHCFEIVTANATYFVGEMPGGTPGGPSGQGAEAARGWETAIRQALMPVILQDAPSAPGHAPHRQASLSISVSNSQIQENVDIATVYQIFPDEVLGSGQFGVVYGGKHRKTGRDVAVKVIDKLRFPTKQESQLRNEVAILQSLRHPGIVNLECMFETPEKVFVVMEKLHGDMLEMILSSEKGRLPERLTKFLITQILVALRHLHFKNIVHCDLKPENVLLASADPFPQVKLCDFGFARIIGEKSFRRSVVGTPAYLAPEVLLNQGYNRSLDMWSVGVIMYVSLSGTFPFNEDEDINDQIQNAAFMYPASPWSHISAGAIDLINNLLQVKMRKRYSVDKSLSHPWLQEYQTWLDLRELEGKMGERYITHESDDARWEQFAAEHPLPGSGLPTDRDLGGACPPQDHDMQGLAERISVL
CAMK2D, sequence (Q13557 whole entry): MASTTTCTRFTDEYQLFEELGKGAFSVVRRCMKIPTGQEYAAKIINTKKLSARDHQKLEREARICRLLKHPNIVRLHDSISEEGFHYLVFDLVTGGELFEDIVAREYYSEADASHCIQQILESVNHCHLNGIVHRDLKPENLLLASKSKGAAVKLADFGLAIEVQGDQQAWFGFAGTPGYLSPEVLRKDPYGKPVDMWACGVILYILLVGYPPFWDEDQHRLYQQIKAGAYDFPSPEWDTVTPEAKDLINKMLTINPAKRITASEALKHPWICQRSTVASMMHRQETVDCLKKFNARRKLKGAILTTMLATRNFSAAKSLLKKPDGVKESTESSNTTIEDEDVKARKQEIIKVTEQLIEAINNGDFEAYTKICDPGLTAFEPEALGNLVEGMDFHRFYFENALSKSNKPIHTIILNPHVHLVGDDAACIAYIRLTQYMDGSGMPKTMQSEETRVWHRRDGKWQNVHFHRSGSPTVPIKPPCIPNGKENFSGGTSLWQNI
PRKCD, sequence (Q05655 whole entry): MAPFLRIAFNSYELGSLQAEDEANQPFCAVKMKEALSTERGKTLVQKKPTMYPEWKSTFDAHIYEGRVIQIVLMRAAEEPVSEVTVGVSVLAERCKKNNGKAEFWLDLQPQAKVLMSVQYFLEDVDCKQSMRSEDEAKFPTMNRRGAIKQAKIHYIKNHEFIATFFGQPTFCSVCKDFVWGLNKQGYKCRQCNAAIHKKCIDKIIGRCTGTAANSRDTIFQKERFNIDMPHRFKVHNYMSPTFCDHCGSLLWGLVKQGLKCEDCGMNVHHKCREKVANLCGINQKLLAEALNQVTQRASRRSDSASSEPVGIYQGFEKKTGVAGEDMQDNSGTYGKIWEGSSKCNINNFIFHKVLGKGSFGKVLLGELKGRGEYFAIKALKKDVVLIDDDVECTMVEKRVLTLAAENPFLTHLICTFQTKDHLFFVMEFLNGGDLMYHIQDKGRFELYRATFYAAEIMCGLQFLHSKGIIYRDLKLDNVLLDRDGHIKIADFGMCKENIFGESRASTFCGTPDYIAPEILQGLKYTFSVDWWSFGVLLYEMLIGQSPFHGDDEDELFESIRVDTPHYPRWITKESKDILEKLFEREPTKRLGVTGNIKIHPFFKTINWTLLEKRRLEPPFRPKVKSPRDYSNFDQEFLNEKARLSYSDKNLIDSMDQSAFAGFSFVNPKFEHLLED
T5 sequence (Q8IY84 whole entry): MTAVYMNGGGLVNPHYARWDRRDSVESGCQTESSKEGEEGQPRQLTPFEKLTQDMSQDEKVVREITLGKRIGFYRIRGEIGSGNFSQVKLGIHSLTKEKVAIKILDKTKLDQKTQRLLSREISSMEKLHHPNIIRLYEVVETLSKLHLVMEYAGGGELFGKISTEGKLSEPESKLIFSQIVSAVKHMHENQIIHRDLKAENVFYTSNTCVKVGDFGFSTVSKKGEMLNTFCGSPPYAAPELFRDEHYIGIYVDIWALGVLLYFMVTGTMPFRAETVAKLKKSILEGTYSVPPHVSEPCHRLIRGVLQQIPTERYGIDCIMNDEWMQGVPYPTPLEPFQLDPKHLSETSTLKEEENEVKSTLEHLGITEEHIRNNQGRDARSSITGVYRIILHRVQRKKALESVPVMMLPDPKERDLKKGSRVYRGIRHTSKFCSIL
MELK, sequence (Q14680 whole entry): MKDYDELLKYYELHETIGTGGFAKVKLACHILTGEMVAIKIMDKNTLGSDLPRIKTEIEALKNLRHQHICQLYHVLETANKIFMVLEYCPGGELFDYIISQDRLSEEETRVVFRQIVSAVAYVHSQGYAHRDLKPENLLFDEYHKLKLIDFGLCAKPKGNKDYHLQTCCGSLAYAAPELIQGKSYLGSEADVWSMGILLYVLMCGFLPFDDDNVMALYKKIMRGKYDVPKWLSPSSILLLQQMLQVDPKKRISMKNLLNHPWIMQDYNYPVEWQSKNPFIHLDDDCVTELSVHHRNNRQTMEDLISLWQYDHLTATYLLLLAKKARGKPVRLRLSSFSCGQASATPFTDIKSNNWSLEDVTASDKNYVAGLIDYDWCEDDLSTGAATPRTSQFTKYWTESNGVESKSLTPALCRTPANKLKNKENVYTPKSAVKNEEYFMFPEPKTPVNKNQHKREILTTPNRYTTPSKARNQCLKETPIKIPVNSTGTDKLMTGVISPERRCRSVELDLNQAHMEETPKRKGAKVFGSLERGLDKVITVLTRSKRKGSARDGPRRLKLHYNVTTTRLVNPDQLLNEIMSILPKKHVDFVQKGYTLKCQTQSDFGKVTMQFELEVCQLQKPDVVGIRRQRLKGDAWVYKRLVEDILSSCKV
PRKD3, sequence (O94806 whole entry): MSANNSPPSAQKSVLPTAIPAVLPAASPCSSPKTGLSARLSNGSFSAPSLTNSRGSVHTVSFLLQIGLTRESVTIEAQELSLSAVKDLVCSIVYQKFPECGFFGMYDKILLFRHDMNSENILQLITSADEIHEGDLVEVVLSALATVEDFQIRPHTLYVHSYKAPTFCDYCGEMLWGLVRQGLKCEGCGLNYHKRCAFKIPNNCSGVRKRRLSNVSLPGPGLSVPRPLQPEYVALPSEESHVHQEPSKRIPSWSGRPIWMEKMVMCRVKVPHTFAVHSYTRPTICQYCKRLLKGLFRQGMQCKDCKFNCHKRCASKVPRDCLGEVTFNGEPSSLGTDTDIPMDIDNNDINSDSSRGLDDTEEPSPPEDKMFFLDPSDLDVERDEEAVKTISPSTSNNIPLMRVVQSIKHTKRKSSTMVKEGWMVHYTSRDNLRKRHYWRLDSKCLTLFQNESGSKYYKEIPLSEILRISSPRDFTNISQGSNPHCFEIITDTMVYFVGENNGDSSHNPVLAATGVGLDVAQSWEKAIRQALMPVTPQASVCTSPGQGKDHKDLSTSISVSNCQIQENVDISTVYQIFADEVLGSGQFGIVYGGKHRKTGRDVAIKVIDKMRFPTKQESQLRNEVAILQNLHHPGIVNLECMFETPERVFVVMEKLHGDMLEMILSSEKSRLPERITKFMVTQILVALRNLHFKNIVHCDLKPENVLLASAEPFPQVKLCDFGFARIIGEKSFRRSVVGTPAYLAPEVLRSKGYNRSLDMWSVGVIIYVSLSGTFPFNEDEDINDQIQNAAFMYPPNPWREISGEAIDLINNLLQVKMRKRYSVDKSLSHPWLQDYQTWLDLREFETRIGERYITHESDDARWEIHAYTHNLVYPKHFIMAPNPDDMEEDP
FYN, sequence (P06241 whole entry): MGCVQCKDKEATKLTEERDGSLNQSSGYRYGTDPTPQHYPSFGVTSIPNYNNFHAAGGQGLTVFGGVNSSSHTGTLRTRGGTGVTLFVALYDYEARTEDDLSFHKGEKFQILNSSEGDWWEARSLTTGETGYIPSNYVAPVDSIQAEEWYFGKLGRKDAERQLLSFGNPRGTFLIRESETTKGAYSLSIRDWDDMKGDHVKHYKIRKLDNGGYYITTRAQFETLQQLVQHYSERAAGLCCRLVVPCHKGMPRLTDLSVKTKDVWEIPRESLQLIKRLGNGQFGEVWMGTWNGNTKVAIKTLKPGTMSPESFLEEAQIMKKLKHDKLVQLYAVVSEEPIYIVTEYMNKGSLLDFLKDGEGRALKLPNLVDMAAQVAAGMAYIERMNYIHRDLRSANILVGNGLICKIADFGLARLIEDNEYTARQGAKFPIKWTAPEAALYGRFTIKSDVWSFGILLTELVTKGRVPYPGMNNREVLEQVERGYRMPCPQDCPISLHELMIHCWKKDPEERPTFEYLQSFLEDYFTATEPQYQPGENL

Cn1c(=O)[nH]c2ccc(-c3cccc(C(=O)NC4CCn5ccnc5C4)c3)cc21 (stereo not shown) [Z36-MP5]
remaining binding at 1 µM [1]: 83% | remaining binding at 1 µM (ABL1-phosphorylated): 51% | remaining binding at 1 µM (CAMK2D): 89% | remaining binding at 1 µM (CLK2): 90% | remaining binding at 1 µM (CSK): 98% | remaining binding at 1 µM (CSNK2A2): 63% | remaining binding at 1 µM (DYRK2): 84% | remaining binding at 1 µM (FES): 73% | remaining binding at 1 µM (FYN): 100% | remaining binding at 1 µM [2]: 96% | remaining binding at 1 µM (KIT(D816V)): 58% | remaining binding at 1 µM (MELK): 85% | remaining binding at 1 µM (MLK3): 93% | remaining binding at 1 µM (NIM1): 72% | remaining binding at 1 µM (PAK3): 71% | remaining binding at 1 µM (PIK3C2G): 100% | remaining binding at 1 µM (PIK4CB): 100% | remaining binding at 1 µM (PRKCD): 97% | remaining binding at 1 µM (PRKD2): 64% | remaining binding at 1 µM (PRKD3): 91% | remaining binding at 1 µM (QSK): 63% | remaining binding at 1 µM (STK35): 81% | remaining binding at 1 µM (TAOK1): 100% | remaining binding at 1 µM (TRKB): 52% | remaining binding at 1 µM (YSK4): 85%
